In patent EP0998923A1, “Use of 5-HT7 receptor agonists for the treatment or prophylaxis of ischemias” (BASF AKTIENGESELLSCHAFT, priority 1998, dated 2000):
pKi: −log10 of the molar value.

Legend:
male Long Evans rats = test: Permanent distal middle cerebral artery (MCA) occlusion, rat model of experimental stroke; type: in vivo
Protocol: The experiments were carried out in male Long Evans rats. Under halothane anesthesia supplemented with nitrous oxide, the right middle cerebral artery (MCA) was dissected and permanently ligated at a distal position as described in the literature. The outcome of the experiments was quantified by determining the resulting infarct volume 22 hours after MCA occlusion.
In the first series of experiments, animals were treated with 2 mg/kg R(+)-8-OH-DPAT i.v. followed by a maintenance infusion of 1 mg/kg/h R(+)-8-OH-DPAT i.v. Drug administration was started 90 min after MCA occlusion. In the second series of experiments, rats were pretreated with 2.14 mg/kg/h WAY 100,635 i.p., started 2 hours before MCA occlusion; administration of R(+)-8-OH-DPAT was subsequently performed as in the first study. Accordingly, in the second series a total dose of 2.14 mg/kg/h of WAY 100,635 had been administered for 3.5 h (total dosage = 7.49 mg/kg) before treatment with the agonist R(+)-8-OH-DPAT commenced. The blockade of 5-HT1A receptors under these conditions was confirmed by the complete lack of stereotyped behavior observed in animals treated with R(+)-8-OH-DPAT […]. Under the conditions of the second series, any pharmacological effect of R(+)-8-OH-DPAT treatment are mediated by the 5-HT7 receptor.
The experiments were carried out under the same conditions as described in Example 1,
A preferred 5-HT7 receptor agonist is 1-[3-[4-[3-(trifluoromethyl)-phenyl]-piperazine-1-yl]-propyl]-3-hydroxy-1H-pyridine-2-on (= Compound A), a compound which can be prepared as discribed in example 3. The 5-HT7 agonist Compound A was administered as an intravenous bolus followed by a maintenance infusion.

5-HT7 receptor = 5-HT7 receptor (Homo sapiens, UniProt P34969); test: Affinity to the 5-HT7 receptor; type: binding
Sequence of 5-HT7 receptor (P34969 whole entry): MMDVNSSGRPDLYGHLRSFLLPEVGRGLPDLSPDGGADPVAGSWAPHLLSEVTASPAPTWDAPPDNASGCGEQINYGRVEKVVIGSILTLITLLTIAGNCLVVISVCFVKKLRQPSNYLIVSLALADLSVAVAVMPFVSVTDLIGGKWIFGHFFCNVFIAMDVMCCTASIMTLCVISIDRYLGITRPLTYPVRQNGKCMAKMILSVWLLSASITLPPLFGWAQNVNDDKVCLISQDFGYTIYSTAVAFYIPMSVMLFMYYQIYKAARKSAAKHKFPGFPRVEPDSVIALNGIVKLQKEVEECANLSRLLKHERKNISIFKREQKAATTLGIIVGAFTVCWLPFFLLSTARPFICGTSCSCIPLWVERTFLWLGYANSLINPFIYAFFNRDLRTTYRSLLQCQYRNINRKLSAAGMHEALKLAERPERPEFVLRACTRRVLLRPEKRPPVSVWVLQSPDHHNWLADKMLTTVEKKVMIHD
From the text: (§1) The affinity of a compound to a human 5-HT receptor can be measured and calculated easily by methods known to a skilled person.

5-HT1A receptor = target: T1, 5-HT1A receptor (Homo sapiens, UniProt P08908); test: Affinity to the 5-HT1A receptor; type: binding
T1 sequence (P08908 1-422): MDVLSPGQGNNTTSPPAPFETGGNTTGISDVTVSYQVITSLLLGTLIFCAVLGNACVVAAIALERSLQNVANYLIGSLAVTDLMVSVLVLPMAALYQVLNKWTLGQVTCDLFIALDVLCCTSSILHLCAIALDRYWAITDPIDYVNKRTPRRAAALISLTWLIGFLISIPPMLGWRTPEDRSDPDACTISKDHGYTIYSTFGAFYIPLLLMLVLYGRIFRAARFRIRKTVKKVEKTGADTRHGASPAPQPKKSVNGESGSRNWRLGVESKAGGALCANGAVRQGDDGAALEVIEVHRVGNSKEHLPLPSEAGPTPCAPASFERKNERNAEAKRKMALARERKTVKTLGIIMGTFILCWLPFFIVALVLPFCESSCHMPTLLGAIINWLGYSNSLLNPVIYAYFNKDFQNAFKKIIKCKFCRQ
From the text: as §1

Row | SMILES | Infarct volume, % of control, mean ± SD, (n) Treatment (male Long Evans rats; Example 1: 2 mg/kg R(+)-8-OH-DPAT i.v. + 1 mg/kg/h i.v. infusion, started 90 min after MCA occlusion, combination: pretreated with 2.14 mg/kg/h WAY 100,635 i.p. from 2 hours before occlusion, infarct volume 22 hours after occlusion) | Stereotyped behavior (male Long Evans rats; Example 1: same dosing as for infarct volume, with or without WAY 100,635 pretreatment) | reduction of infarct volume (male Long Evans rats; Example 1: versus placebo, 22 hours after MCA occlusion) | Stereotyped behavior (male Long Evans rats; Example 2: dose 4+2 mg/kg + mg/kg/h i.v.) | Infarct volume, % of control, mean ± SD, (n) Treatment (male Long Evans rats; Example 2: dose 4+2 mg/kg + mg/kg/h i.v. (bolus + maintenance infusion), same conditions as Example 1) | pKi (5-HT7 receptor) | selectivity for the 5-HT7 receptor (5-HT7 receptor; 5-HT7 over 5-HT1A (ratio of Ki values)) | pKi (5-HT1A receptor)
1 | CCCN(CCC)C1CCc2cccc(O)c2C1 (stereo not drawn) [R(+)-8-OH-DPAT, 8-hydroxy-di-n-propylamino tetralin] | 72±32(12) % of control | Yes | 28% |  |  |  |  | 
2 | O=c1c(O)cccn1CCCN1CCN(c2cccc(C(F)(F)F)c2)CC1 [Compound A, 1-[3-[4-[3-(trifluoromethyl)-phenyl]-piperazine-1-yl]-propyl]-3-hydroxy-1H-pyridine-2-on] |  |  |  | No | 78±23(10) % of control | 8.15 | approximately 19 fold | 6.89
